Apoptosis percentage data for 1 compound are collected here from patent US9821002B2, “Method for alleviating radiation injury with isorhamnetin-3-O-β-D-glucoside” (Sinotai Oncology Associate., Ltd., priority 2015, dated 2017).

One assay concerns BNL CL.2 cells. In words: Apoptosis assay (FITC Annexin V/PI) after X-ray irradiation. It is filed as cell-based, mouse. Particulars: 2 h pretreatment, X-ray 15 Gy, 96 hours, mean ± SEM. The text has this:
(§1) Four groups of BNL CL.2 cells (i.e., a normal control group referred to as Normal Control Group 1-A, an X-ray control group referred to as X-Ray Control Group 1-A, and two experimental groups referred to as Experimental Groups 1-A to 2-A), and six groups of NMuMG cells (i.e., a normal control group referred to as Normal Control Group 1-B, an X-ray control group referred to as X-Ray Control Group 1-B, two isorhamnetin groups referred to as Isorhamnetin Groups 1 to 2, and two experimental groups referred to as Experimental Groups 1-B to 2-B), were prepared based on the procedure set forth in “Source and cultivation of cell lines” of “Experimental materials”. BNL CL.2 cells in each group were cultivated using 5 mL of a corresponding medium shown in Table 1 and a 6-cm Petri dish in an amount of 2×10^5 cells per dish. Likewise, NMuMG cells in each group were cultivated using 5 mL of a corresponding medium shown in Table 1 and a 6-cm Petri dish in an amount of 2.5×10^5 cells per dish. The cultivation was conducted in an incubator (37° C., 5% CO2) for 24 hours.
(§2) Subsequently, medium was replaced with fresh medium. The obtained cultures in Experimental Groups 1-A, 1-B, 2-A, and 2-B were pretreated with the stock solution of isorhamnetin-3-O-β-D-glucoside, and the obtained cultures in Isorhamnetin Groups 1 to 2 were pretreated with the stock solution of isorhamnetin.
(§3) The culture in each group was then cultivated in an incubator (37° C., 5% CO2) for two hours. The resultant culture was used for the following experiments in sections B to D.
(§4) The cultures in X-Ray Control Group 1-A, X-Ray Control Group 1-B, Isorhamnetin Group 1, Isorhamnetin Group 2, Experimental Group 1-A, Experimental Group 1-B, Experimental Group 2-A, and Experimental Group 2-B, prepared according to section A of “Experimental procedures” in this example, were subjected to X-ray irradiation using a linear accelerator at a dose of 15 Gy. The cultures in Normal Control Groups 1-A and 1-B received no X-ray irradiation treatment. The culture of BNL CL.2 cells in each group was cultivated using a 6-cm Petri dish in an incubator (37° C., 5% CO2) for 96 hours, and the culture of NMuMG cells in each group was cultivated using a 6-cm Petri dish in an incubator (37° C., 5% CO2) for 72 hours. 1 mL of trypsin-EDTA was added to the culture in each group so as to detach the cells from the bottom of the Petri dish. Following this, 1 mL of a fresh medium (corresponding to the medium described in Table 1) was added to neutralize the activity of the trypsin, and the resultant cell suspension was transferred to a centrifuge tube with a pipette, followed by centrifugation at 1200 rpm for three minutes. The supernatant was removed, and the cell pellet thus obtained was washed once with cold PBS (pH 7.4), followed by centrifugation at 1200 rpm for 3 minutes. The supernatant was removed, and 100 μL of cold Annexin V binding buffer (BD Pharmingen™) was added to sufficiently re-suspend the cell pellet thereby obtaining a cell suspension having a cell concentration of 1.0×10^6 cells/mL. Afterward, 5 μL of FITC Annexin V (BD Pharmingen™) and 5 μL of propidium iodide (PI) staining solution (BD Pharmingen™) were added to the obtained cell suspension, followed by mixing evenly and standing in the dark at 4° C. for 30 minutes so as to obtain stained cells.
(§5) Subsequently, the stained cells were analyzed using BD Accuri™ C6 flow cytometry, in which cells that could be stained with FITC Annexin V but not with PI (i.e., FITC Annexin V positive and PI negative) represented cells that were induced with early apoptosis; cells stained with both FITC Annexin V and PI (i.e., FITC Annexin V positive and PI positive) represented cells that were induced with late apoptosis; and cells that could not be stained with FITC Annexin V and PI (i.e., FITC Annexin V negative and PI negative) represented viable cells. The number of stained cells was calculated using BD Accuri™ C6 software. […]

For the next assay, the system named is NMuMG cells. The description is as above. It is filed as cell-based, mouse. To be noted: 2 h pretreatment, X-ray 15 Gy, 72 hours, mean ± SEM.
Source text: as §1, §2, §3, §4, §5

SMILES strings stand for the structures.

For `COc1cc(-c2oc3cc(O)cc(O)c3c(=O)c2O[C@@H]2O[C@H](CO)[C@@H](O)[C@H](O)[C@H]2O)ccc1O` [isorhamnetin-3-O-β-D-glucoside], the Apoptosis percentage with BNL CL.2 cells (5 μM) is on record as 30.28 ± 3.09%; with BNL CL.2 cells (30 μM), 29.35 ± 1.92 %; in the assay on NMuMG cells (15 μM) it was 17.77 ± 0.88 %; in the assay on NMuMG cells (30 μM), 16.5 ± 0.62 %.
